Literature values, collected in US4829051A, “N-substituted derivatives of 1-desaminovasopressin” (Vega Laboratories, Inc., priority 1984, dated 1989).

Conditions: in vivo

**Q.** Which Antidiuretic activity does the source give for NC(=O)CC[C@@H]1NC(=O)[C@H](Cc2ccccc2)NC(=O)[C@H](Cc2ccc(O)cc2)NC(=O)CCSSC[C@@H](C(=O)N2CCC[C@H]2C(=O)N[C@H](CCCN=C(N)N)C(=O)NCC(N)=O)NC(=O)[C@H](CC(N)=O)NC1=O [desmopressin] here?
**A.** enhanced and prolonged antidiuretic activity

**Q.** What about the Pressor activity of the same compound?
**A.** low pressor activity
